Measured values as given in PMC7470111, “Escherichia coli γ-carbonic anhydrase: characterisation and effects of simple aromatic/heterocyclic sulphonamide inhibitors” (Journal of Enzyme Inhibition and Medicinal Chemistry, 2020).

These compounds were tested against T1, EcoCAγ (Escherichia coli, UniProt P0A9W9) (assay: biochemical). Conditions: not given.
T1 construct: gene yrdA; recombinant full-length WP_009008373.1, N-terminal His-tag, 72 extra N-terminal residues versus YrdA
T1 sequence (P0A9W9 1-184): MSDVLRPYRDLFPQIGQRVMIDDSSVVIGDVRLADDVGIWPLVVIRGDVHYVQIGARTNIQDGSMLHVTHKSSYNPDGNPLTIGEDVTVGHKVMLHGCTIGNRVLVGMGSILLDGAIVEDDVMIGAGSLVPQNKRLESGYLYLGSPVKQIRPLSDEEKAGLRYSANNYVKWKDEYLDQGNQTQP
Experimental: The CO2 hydration activity performed by the EcoCAγ was monitored using an Applied Photophysics stopped-flow instrument. […] To determine the kinetic parameters by Lineweaver-Burk plots and the inhibition constants, a concentration of CO2 between 1.7 to 17 mM was used. At least six measurements of the original 5–10% reaction were used to assess the initial velocity for each inhibitor. The uncatalyzed rates were identically determined and detracted from the total observed rates. Stock inhibitor solutions (10–100 mM) were prepared in distilled-deionized water and dilutions up to 0.01 mM were done with the buffer test. Inhibitor and enzyme solutions were preincubated together for 15 min at room temperature prior to assay, in order to allow for the formation of the E-I complex or for the eventual active site mediated hydrolysis of the inhibitor. The inhibition constants were obtained by non-linear least-squares methods using PRISM 6 and the Cheng-Prusoff equation, as reported earlier[12]^,[14]^,[68], and represent the mean from at least three different determinations. h CAI and hCA II were recombinant enzymes obtained in-house. The synthetic E. coli gene encoding for the EcoCAγ (Accession number: WP_009008373.1) was synthesised by the Invitrogen GeneArt (ThermoFisher Scientific), a company specialised in gene synthesis, and cloned into the expression vector pET100D-Topo/γ-CA. Briefly, the gene was designed to produce the recombinant EcoCAγ as fusion proteins with a tag containing nucleotides encoding for six histidines (His-Tag) at the amino terminus of neosynthetized recombinant protein. Competent E. coli BL21 (DE3) codon plus cells (Agilent) were transformed as described by Del Prete et al.. Isopropyl β-D-1-thiogalactopyranoside (IPTG) at the concentration of 1 mM was added to the cellular culture to overexpress the recombinant EcoCAγ. After growth, the cells were harvested and disrupted by sonication. Cellular extract was purified using a nickel affinity column (His-Trap FF), which allows the interaction between the matrix functionalised with Ni^2+ ions and the His-Tag at the N-terminus of the protein. The HisTrap column (1 ml) was equilibrated with 20 ml equilibration buffer (50 mM Tris, 20 mM imidazole and 150 mM sodium chloride, pH 7.5) at 1 ml/min. The supernatant from the cellular lysate was loaded onto the column at 1 ml/min, and eluted from the column by fluxing imidazole (300 mM) at a flow of 0.5 ml/min in a buffer composed of 50 mM Tris and 300 mM sodium chloride, pH 7.5. The recovered EcoCAγ was 90% pure. The protein quantification was carried out by Bradford method (BioRAD).
Compound `NS(=O)(=O)c1cccc(S(N)(=O)=O)c1` [compound 3] has a Ki of 246 nM.
Work on `Nc1nnc(S(N)(=O)=O)s1` [compound 13] yielded a Ki of 197 nM.
With `Nc1nccc(Nc2ccc(S(N)(=O)=O)cc2)n1` [compound 19] the Ki was 1890 nM.
`Nc1ccc(S(N)(=O)=O)cc1F` [compound 7] was tested, and the Ki was 605 nM.
In the case of `Nc1cc(Cl)c(S(N)(=O)=O)cc1S(N)(=O)=O` [compound 12], the Ki is reported as 1950 nM.
For `NCCc1ccc(S(N)(=O)=O)cc1` [compound 6], the Ki was 622 nM.
`NS(=O)(=O)c1ccc(CCO)cc1` [compound 17] showed a Ki of 1970 nM.
With `Cn1nc(S(N)(=O)=O)sc1=N` [compound 14] the Ki was 712 nM.
With `NS(=O)(=O)c1ccc(C(=O)O)cc1` [compound 18] the Ki was 2060 nM.
`Nc1cc(C(F)(F)F)c(S(N)(=O)=O)cc1S(N)(=O)=O` [compound 11] gave a Ki of 1780 nM.
With `Nc1ccc(S(N)(=O)=O)cc1Cl` [compound 8] the Ki was 671 nM.
In the case of `NS(=O)(=O)c1cc(Cl)cc(Cl)c1O` [compound 10], the Ki is reported as 2580 nM.
Work on `Nc1ccc(S(=O)(=O)Nc2ccc(S(N)(=O)=O)cc2)cc1` [compound 22] yielded a Ki of 3500 nM.
For `NS(=O)(=O)c1ccc(CO)cc1` [compound 16], the Ki was 4240 nM.
Compound `NS(=O)(=O)c1ccc(O)cc1` [compound 15] has a Ki of 1010 nM.
`Nc1ccc(S(=O)(=O)Nc2nnc(S(N)(=O)=O)s2)cc1` [compound 20] was tested, and the Ki was 883 nM.
With `Nc1ccc(S(N)(=O)=O)cc1Br` [compound 9] the Ki was 718 nM.
For `Nc1ccc(S(=O)(=O)NCCc2ccc(S(N)(=O)=O)cc2)cc1` [compound 24], the Ki was 4260 nM.
With `Nc1ccc(S(=O)(=O)NCc2ccc(S(N)(=O)=O)cc2)cc1` [compound 23] the Ki was 4040 nM.
In the case of `Cc1ccc(S(N)(=O)=O)cc1` [compound 4], the Ki is reported as 221 nM.

Same assay, conditions: inhibitor
Compound `Nc1cccc(S(N)(=O)=O)c1` [compound 1] has a Ki of 314 nM.
`NS(=O)(=O)c1ccc(CCNS(=O)(=O)c2ccc([N+](=O)[O-])cc2CO)cc1` [compound 21] showed a Ki of 819 nM.
